According to patent US20050222127A1, “Use of Rho kinase inhibitors in the treatment of hearing loss, tinnitus and improving body balance” (Alcon, Inc., priority 2004, published 2005):

Tests used:
[1] = target: T1, Human recombinant Rho kinase (ROKα/ROCK-II, aa 11-552) (Homo sapiens, UniProt O75116); test: [γ-33P]-ATP-based Rho kinase assay; format: biochemical; settings: mean ± SEM; 100 μM ATP, Long S6 substrate peptide 30 μM, 30 min at 30° C.; read-out: Rho Kinase Inhibition Constants (IC50), [γ-33P]-ATP-Based Assay
T1 construct: ROKα/ROCK-II, (aa 11-552), human active, catalog #14-451; purchased Upstate Biotechnology Co., Lake Placid, N.Y. 14-451
Protocol: (§1) Rho kinase activity and inhibition of activity by test compounds in vitro is carried out using a radioactive assay or a fluorescence polarization assay as described herein.
The enzyme assays are performed using a Biomek 2000 Robotic Workstation (Beckman Instruments, Palo Alto, Calif.) in a 96-well format using [γ-^33P]-ATP (Perkin-Elmer Life Sciences, Boston, Mass.). Stock [γ-^33P] ATP (3000 Ci/mmol) is diluted to 1 μCi/μl with the MgCl2/ATP cocktail solution. The concentrations of MgCl2/ATP used are 15 mM and 100 μM, respectively. […] The substrate and enzyme are diluted in 20 mM MOPS buffer (pH 7.2), 25 mM β-glycerol phosphate, 5 mM EGTA, 1.0 mM sodium orthovanadate, and 1.0 mM DTT. Test compound dilutions are made in 10:10 dimethyl sulfoxide-ethanol (vol/vol). In the following order, substrate, enzyme, test compound dilution, and [γ-33P]-ATP are added to the 96-well plates for a final volume of 100 μl per well. […] The radioactivity captured on the filter mats is then determined on a beta-counter.

Rho kinase (ROCK II) = target: T2, Rho kinase (ROCK II) (Homo sapiens, UniProt O75116); test: IMAP fluorescence polarization Rho kinase assay (IMAP ROCK II kit); format: biochemical; settings: mean ± SEM; 10 μM ATP, substrate 200 nM, 60 min at 23° C.; read-out: Rho Kinase Inhibition Constants (IC50), IMAP Fluorescence Polarization-Based Assay
T2 construct: purchased Molecular Devices, Sunnyvale, Calif
Protocol: as §1
The fluorescence polarization assays are performed using a Biomek 2000 Robotic Workstation (Beckman Instruments, Palo Alto, Calif.) in a 96-well plate format. The assay is performed utilizing the IMAP ROCK II kit (Molecular Devices, Sunnyvale, Calif.) as follows. […] The substrate, enzyme, and ATP dilutions are made with the reaction buffer provided by the vendor. Test compounds are diluted in 10:10 DMSO-ethanol (vol/vol). For the actual assay, the various components are added into black, clear bottom, 96-well plates (Costar, Corning, N.Y.) in a final volume of 20 μl per well. After the enzyme reaction (60 min at 23° C.), 60 μl of the binding solution (IMAP kit provided by vendor) is added per well and incubated for an additional 30 minutes in the dark at 23° C. Fluorescence polarization of the reaction mixtures is then measured on the Analyst™ HT instrument (Molecular Devices, Sunnyvale, Calif.). The data are then analyzed using a non-linear, iterative, sigmoidal-fit computer program purchased from IDBS (Emeryville, Calif.) and as previously described (Sharif et al., ibid.) to generate the inhibition constants for the test compounds.

T1 sequence (O75116 11-552): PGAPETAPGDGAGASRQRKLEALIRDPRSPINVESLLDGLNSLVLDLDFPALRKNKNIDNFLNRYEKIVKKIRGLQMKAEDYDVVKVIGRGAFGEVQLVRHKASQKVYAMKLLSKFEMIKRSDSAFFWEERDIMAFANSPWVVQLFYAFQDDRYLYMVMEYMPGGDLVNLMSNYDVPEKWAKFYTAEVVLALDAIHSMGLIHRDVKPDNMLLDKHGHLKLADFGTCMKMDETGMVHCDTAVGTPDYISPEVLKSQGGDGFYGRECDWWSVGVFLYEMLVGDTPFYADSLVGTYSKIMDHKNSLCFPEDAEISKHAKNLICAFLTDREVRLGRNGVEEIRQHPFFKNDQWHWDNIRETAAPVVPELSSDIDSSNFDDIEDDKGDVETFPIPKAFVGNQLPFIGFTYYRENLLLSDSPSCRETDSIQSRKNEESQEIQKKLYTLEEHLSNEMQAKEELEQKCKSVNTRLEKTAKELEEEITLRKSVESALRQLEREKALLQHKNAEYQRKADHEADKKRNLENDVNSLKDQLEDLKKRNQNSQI
T2 sequence (O75116 whole entry, species assumed): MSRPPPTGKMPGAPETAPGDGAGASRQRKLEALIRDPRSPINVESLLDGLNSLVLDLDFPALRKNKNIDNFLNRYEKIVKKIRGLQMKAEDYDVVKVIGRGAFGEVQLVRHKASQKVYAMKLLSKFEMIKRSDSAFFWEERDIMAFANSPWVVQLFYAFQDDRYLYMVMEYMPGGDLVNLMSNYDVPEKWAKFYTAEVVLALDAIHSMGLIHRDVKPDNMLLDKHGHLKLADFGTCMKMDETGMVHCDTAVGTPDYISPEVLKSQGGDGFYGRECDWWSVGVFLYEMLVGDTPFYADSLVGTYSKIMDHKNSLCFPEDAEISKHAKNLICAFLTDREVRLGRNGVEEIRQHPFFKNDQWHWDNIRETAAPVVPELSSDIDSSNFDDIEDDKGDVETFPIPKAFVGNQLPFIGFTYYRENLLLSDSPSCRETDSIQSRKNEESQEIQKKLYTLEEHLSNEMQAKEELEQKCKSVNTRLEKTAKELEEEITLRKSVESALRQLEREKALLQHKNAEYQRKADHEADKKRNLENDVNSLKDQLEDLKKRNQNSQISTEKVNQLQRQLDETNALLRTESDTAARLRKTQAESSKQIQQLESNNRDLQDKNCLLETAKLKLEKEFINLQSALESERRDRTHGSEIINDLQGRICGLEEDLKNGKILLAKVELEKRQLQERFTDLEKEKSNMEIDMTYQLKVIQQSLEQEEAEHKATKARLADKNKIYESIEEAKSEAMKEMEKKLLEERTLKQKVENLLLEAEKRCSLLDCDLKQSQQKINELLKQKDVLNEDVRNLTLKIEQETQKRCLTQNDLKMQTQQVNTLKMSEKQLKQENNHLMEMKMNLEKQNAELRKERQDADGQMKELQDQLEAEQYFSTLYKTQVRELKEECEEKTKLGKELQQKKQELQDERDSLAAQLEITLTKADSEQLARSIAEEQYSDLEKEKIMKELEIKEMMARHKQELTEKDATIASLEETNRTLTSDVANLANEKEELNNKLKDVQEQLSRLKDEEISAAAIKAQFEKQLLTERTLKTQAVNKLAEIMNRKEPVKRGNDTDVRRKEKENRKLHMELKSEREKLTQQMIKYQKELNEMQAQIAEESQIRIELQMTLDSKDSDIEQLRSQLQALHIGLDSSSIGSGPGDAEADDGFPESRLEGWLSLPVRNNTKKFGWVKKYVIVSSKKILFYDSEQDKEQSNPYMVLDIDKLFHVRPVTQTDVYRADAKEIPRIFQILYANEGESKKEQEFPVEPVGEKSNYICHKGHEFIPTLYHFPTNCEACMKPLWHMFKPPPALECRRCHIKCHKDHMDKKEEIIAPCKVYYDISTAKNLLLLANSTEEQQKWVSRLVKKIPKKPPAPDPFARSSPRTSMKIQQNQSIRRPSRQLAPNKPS

| SMILES | IC50 [1] [nM] | IC50 (Rho kinase (ROCK II)) [nM] |
| --- | --- | --- |
| CC1CNCCN1S(=O)(=O)c1cccc2cnccc12 (centres unmarked) [B, reference compound] | 2340 ± 395 | 913 ± 644 |
| Cc1cncc2cccc(S(=O)(=O)N3CCCN(C)C(C)C3)c12 (centres unmarked) [D] | 3460 ± 1800 | 270 ± 113 |
| Cc1cncc2cccc(S(=O)(=O)N3CCCN(C)CC3C)c12 (centres unmarked) [E] | 485 ± 207 | 108 ± 53 |
| Cc1cncc2cccc(S(=O)(=O)N3CCCNC(C)(C)C3)c12 [F] | 1510 ± 704 | 2010 ± 85 |
| Cc1cncc2cccc(S(=O)(=O)N3CCNC(C)C3)c12 (centres unmarked) [G] | 2630 ± 307 | 2390 ± 1260 |
| CC1CN(S(=O)(=O)c2cccc3cnccc23)CCN1 (centres unmarked) [I, reference compound] | 6700 ± 900 | – |
